The record followed here is patent US10980901B2, “Treatment of PMSA expressing cancers” (THE EUROPEAN ATOMIC ENERGY COMMUNITY (EURATOM), REPRESENTED …, priority 2016, dated 2021).

Series [1] deals with PSMA expressing cancers. As to the kind of experiment: Treatment response monitored by PSA values in blood, patient cohorts. In kind it is in vivo, patients. Particulars: for patients in PSA response / patients in PSA response (percentage): at week-24. Here is the method: 20 Patients were treated 3 times with activities of 100 kBq/kg body weight of Ac-225-PSMA-617 in two month intervals.
Treatment response was monitored by PSA values in blood and with PET/CT (positron emission tomography-computed tomography) with Ga-68-PSMA-HBED-CC (also called Gallium-68-PSMA11) before therapy and after the third therapy.
Experiments have been conducted to compare the efficiency of the Ac-225-radiopharmaceuticals as used in the present invention, such as Ac-225-PSMA-617, with that of non-Ac-225-radiopharmaceuticals comprising the same targeting compound, but chelated e.g. with Lu-177, such as a radionuclide Lu-177-PSMA-617.

A short description of series [2]: Toxicity monitored by blood sampling and clinical side effects, patient cohorts. In kind it is in vivo, patients. The following applies: patient cohort; for change in thrombocyte or white blood cell count: during therapy; for dysfunction of salivary glands: reported side effect; for tolerability of the treatment: lab tests every 4 weeks, clinical side effects every 8 weeks. Here is the method:
Toxicity was monitored by blood sampling.
Hematologic response was evaluated every 4 weeks per lab tests and clinical side effects were monitored every 8 weeks.

The test system of series [3] is metastatic castration-resistant prostate cancer (mCRPC). As to the kind of experiment: Treatment of individual mCRPC patients A and B: PSA level and PSMA PET/CT restaging. The format is in vivo. As to the method:
Clinical Course of Patient A presented with diffuse red marrow infiltration of mCRPC (this physical condition was considered a contraindication for treatment with β-emitters). Patient A was treated with 3 cycles of 9-10 MBq (100 kBq per kilogram of body weight) of Ac-225-PSMA-617 at bimonthly intervals.
(§1) Patient B was initially treated with Lu-177-PSMA-617 (7.4 GBq per cycle), which was offered as salvage therapy. The initial PSA level was 294 ng/ml. […] Therapy was changed to Ac-225-PSMA-617, and the patient received 3 cycles of 6.4 MBq (100 kBq per kilogram of body weight) at bimonthly intervals.

The test system of series [4] is PSMA expressing cancers. As to the kind of experiment: Treatment response monitored by PSA values in blood, patient cohorts. In kind it is in vivo, patients. Particulars: comparative example.
Series [5] is described as follows: Laboratory test follow-up and side effects of individual mCRPC patients A and B. In kind it is in vivo.
Source text: After each cycle, the blood cell count and alkaline phosphatase level were checked every 2 week. The platelet level never dropped below 100/n1 (grade 1 according to the Common Terminology Criteria for Adverse Events, version 4.0), the total white blood cell count never dropped below 2.5/n1 (grade 1), and the hemoglobin level never dropped below 9.5 g/dl (grade 2) (FIG. 13A). […] A concordant decline in PSA level and alkaline phosphatase level (FIG. 13B) further underlined the excellent treatment response.
as §1

[6] abbreviates: 30 patients, eight weeks after the first treatment cycle.
[7] abbreviates: eight weeks after the first treatment cycle, 20 patients, 100 kBq/kg body weight.
The mark [8] stands for this setting: sixteen weeks after the first treatment cycle, 20 patients, 100 kBq/kg body weight.
[9] abbreviates: twenty-four weeks after the first treatment cycle, 20 patients, 100 kBq/kg body weight.
[10] abbreviates: patient A, after additional 6 MBq consolidation therapy.
The mark [11] stands for this setting: patient A, checked every 2 week after each cycle.

As for `O=C([O-])CN1CCN(CC(=O)[O-])CCN(CC(=O)NCC2CCC(C(=O)N[C@@H](Cc3ccc4ccccc4c3)C(=O)NCCCC[C@H](NC(=O)N[C@@H](CCC(=O)O)C(=O)O)C(=O)O)CC2)CCN(CC(=O)[O-])CC1.[177Lu+3]` (stereo partly shown) [Lu-177-PSMA-617, reference compound], in the series with PSMA expressing cancers [1], the “patients in PSA response” value is listed as 9/30 and the “patients in PSA response (percentage)” value stood at 30%. In addition, the “response rate in comparison to Ac-225-PSMA-617 group” value with PSMA expressing cancers [1] (comparison of treated groups) is reported as “lower response rate”. In addition, in series [2], the “change in thrombocyte or white blood cell count” value is listed as “no significant change”, the “dysfunction of salivary glands” value was “Mild moderate dysfunction of salivary glands” and the “tolerability of the treatment” value is on record as “well tolerated”. The “lesions on PSMA PET/CT, restaging” value in series [3] (patient B, after 2 cycles of Lu-177-PSMA-617) is reported as “tumor progression”. The PSA level in series [3] (patient B, after cycle 2, 7.4 GBq per cycle, initial PSA level 294 ng/ml) stood at 419 ng/mL. In the series on PSMA expressing cancers [4] (setting [6]), the “patients presenting a decrease in PSA” value is recorded as 21/30 and the “patients with decrease in PSA >50%” value is given as 16 patients. In addition, in the series with PSMA expressing cancers [4] (30 patients, twenty-four weeks after the first treatment cycle, some patients dropped out), the “patients presenting a decrease in PSA” value is 9/30. Besides, the “patients with decrease in PSA >50% among those with PSA decrease” value with PSMA expressing cancers [4] (twenty-four weeks after the first treatment cycle) was “all of them”.
Consider `O=C(O)CCC(NC(=O)NC(CCCCNC(=O)C(Cc1cccc2ccccc12)NC(=O)C1CCC(CNC(=O)CN2CCN(CC(=O)O)CCN(CC(=O)O)CCN(CC(=O)O)CC2)CC1)C(=O)O)C(=O)O` (stereo not shown) [Ac-225-PSMA-617, metal not drawn], for which, in the series on PSMA expressing cancers [1], the “patients in PSA response” value is reported as 15/28 and the “patients in PSA response (percentage)” value was 54%. In the series on PSMA expressing cancers [1] (setting [7]), the “patients with decrease in PSA >25%” value is reported as 17 patients and the “patients with decrease in PSA >50%” value was found to be 12 patients. In addition, the “patients presenting a decrease in PSA” value in the series with PSMA expressing cancers [1] (eight weeks after the first treatment cycle, 20 patients, 100 kBq/kg body weight, 3 times in two month intervals) is 19/20. Also, in the series with PSMA expressing cancers [1] (setting [8]), the “patients presenting a decrease in PSA” value is given as 15/20 and the “patients with decrease in PSA >50%” value came out at 14 patients. Besides, in the series on PSMA expressing cancers [1] (setting [9]), the “patients presenting a decrease in PSA” value is 15/20 and the “patients with decrease in PSA >50%” value came out at 12 patients. Also, in series [2], the “change in thrombocyte or white blood cell count” value is “no significant change”, the “dysfunction of salivary glands” value is “Several patients reported dysfunction of salivary glands” and the “tolerability of the treatment” value is “well tolerated”. Further, the “tumor markers (PSA, alkaline phosphatase)” value in series [3] (patient A, FIG. 13B) is “Decline of tumor markers to none measurable or reference range”. For the same compound, in series [3] (setting [10]), the PSA level entry was “less than 0.1 ng/ml” and the imaging response entry was “complete imaging response”. In series [3] (patient A, two months after 3 cycles of 9-10 MBq (100 kBq/kg) at bimonthly intervals), the “previously PSMA-positive lesions on PSMA PET/CT” value was “visually disappeared”. The compound also came in with a PSA level in series [3] (patient A, two months after 3 cycles of 9-10 MBq, dropped from more than 3,000 ng/ml) of 0.26 ng/mL. Besides, in series [3] (patient B, after 2 cycles of 6.4 MBq (100 kBq/kg) at bimonthly intervals, after failed Lu-177-PSMA-617), the “restaging based on PSMA PET/CT” value is given as “partial response”. The “restaging based on PSMA PET/CT” value in series [3] (patient B, after 3 cycles of 6.4 MBq (100 kBq/kg) at bimonthly intervals) is “complete remission”. This compound also gave a PSA level in series [3] (patient B, after 3 cycles of 6.4 MBq, below the measurable level) of less than 0.1 ng/mL. For the same compound, in series [3] (patient B, after second and third cycles, FIG. 14C, 14D), the “restaging on 68-Ga-PSMA-11 PET/CT” value is on record as “impressive response”. Also, in series [5] (patient A), the “clinically reported side effect” value is on record as “Moderate but enduring dysfunction of salivary glands”; the “hemoglobin level, CTCAE grade” value is given as “grade 2”; the “platelet level, grade according to Common Terminology Criteria for Adverse Events, version 4.0” value is on record as “grade 1”; the “total white blood cell count, CTCAE grade” value is recorded as “grade 1”. Moreover, the “hematologic toxicity (blood cell count)” value in series [5] (patient A, FIG. 13A) was “moderate hematologic toxicity”. In series [5] (setting [11]), the “hemoglobin level (lowest)” value is no less than 9.5 g/dL, the “platelet level (lowest)” value is listed as ≥ 100 /n1 and the “total white blood cell count (lowest)” value is recorded as ≥ 2.5 /n1. Further, the reported side effect result in series [5] (patient B) was “severe dysfunction of salivary glands”. Further, the “hematologic toxicity (laboratory tests)” value in series [5] (patient B, 3 cycles of 6.4 MBq) was “no relevant hematologic toxicity”.
